test system: formalin-induced pain response in mice; test: formalin-induced pain response test in mice; type: in vivo; details: formalin 0.92% in hind paw, licking time 15 to 30 min after injection, dose 1 mg/kg i.v.
Protocol: The compounds of the present invention were evaluated for their analgesic properties in the formalin-induced pain response test in mice (Shibata, M., Ohkubo, T., Takahashi, H. & R. Inoki. Modified formalin test: characteristic biphasic pain response. Pain, 38, 347-352). To summarize, formalin (0.92% in saline solution) is injected into the hind paw and the paw licking time, which reflects pain intensity, is recorded from 0 to 5 min (1st phase) and from 15 to 30 min (2nd phase) after injection.

| Molecule | % inhibition of the 2nd paw licking phase [%] |
| --- | --- |
| N-[[4-(4,5-dihydro-1H-imidazol-2-yl)phenyl]methyl]-2-[2-[[(4-methoxy-2,6-dimethylphenyl)sulphonyl]methylamino]ethoxy]-N-methyl-acetamide, trifluoroacetate [Example 49] | 40 |

same assay, conditions: formalin 0.92% in hind paw, licking time 15 to 30 min after injection, dose 10 mg/kg i.p.

| Molecule | % inhibition of the 2nd paw licking phase [%] |
| --- | --- |
| Cc1c(Cl)ccc(S(=O)(=O)N(CCCCC(=O)N(C)Cc2ccc(C3=NCCN3)cc2)CC(N)=O)c1Cl.O=C(O)C(F)(F)F [Example 19, 5-[(2-amino-2-oxoethyl)[(2,4-dichloro-3-methylphenyl)sulphonyl]-amino]-N-[[4-(4,5-dihydro-1H-imidazol-2-yl)phenyl]methyl]-N-methyl-pentanamide, trifluoroacetate] | 42 |

same assay, conditions: formalin 0.92% in hind paw, licking time 15 to 30 min after injection, dose 100 mg/kg p.o.

| Molecule | % inhibition of the 2nd paw licking phase [%] |
| --- | --- |
| CN(Cc1ccc(C2=NCCN2)cc1)C(=O)CCCCN(C1CC1)S(=O)(=O)c1cccc(Cl)c1Cl.O=C(O)C(F)(F)F [Example 16, 5-[cyclopropyl[(2,3-dichlorophenyl)sulphonyl]amino]-N-[[4-(4,5-dihydro-1H-imidazol-2-yl)phenyl]methyl]-N-methyl-pentanamide, trifluoroacetate] | 80 |
| 5-[[(2,3-dichlorophenyl)sulphonyl]methylamino]-N-[[4-(4,5-dihydro-1H-imidazol-2-yl)phenyl]methyl]-N-methyl-pentanamide, trifluoroacetate [Example 9] | 60 |

test system: not given; test: not given; details: not given

| Molecule | melting point [°C] |
| --- | --- |
| CN(Cc1ccc(C2=NCCN2)cc1)C(=O)CCCCN(C1CC1)S(=O)(=O)c1cccc(Cl)c1Cl.O=C(O)C(F)(F)F [Example 16, 5-[cyclopropyl[(2,3-dichlorophenyl)sulphonyl]amino]-N-[[4-(4,5-dihydro-1H-imidazol-2-yl)phenyl]methyl]-N-methyl-pentanamide, trifluoroacetate] | 70 |
| CN(Cc1ccc(C2=NCCN2)cc1)C(=O)COCCN(C1CC1)S(=O)(=O)c1cccc(Cl)c1Cl.O=C(O)C(F)(F)F | 65 |
| Cc1c(Cl)ccc(S(=O)(=O)N(CCOCC(=O)N(C)Cc2ccc(C3=NCCN3)cc2)CCc2ccccc2)c1Cl.O=C(O)C(F)(F)F | 85 |
| CC(C)N(CCCCC(=O)N(C)Cc1ccc(C2=NCCN2)cc1)S(=O)(=O)c1c(Cl)cccc1Cl.O=C(O)C(F)(F)F | 60 |
| CN(Cc1ccc(C2=NCCN2)cc1)C(=O)COCCN(C)S(=O)(=O)c1cccc2ccccc12.O=C(O)C(F)(F)F | 66 |
| CN(Cc1ccc(C2=NCCN2)cc1)C(=O)/C=C/CN(C)S(=O)(=O)c1cccc2ccccc12.O=C(O)C(F)(F)F | 77 |
| CN(Cc1ccc(C2=NCCN2)cc1)C(=O)COCCN(C)S(=O)(=O)c1ccccc1C(F)(F)F.O=C(O)C(F)(F)F | 60 |
| CN(Cc1ccc(C2=NCCN2)cc1)C(=O)/C=C/CN(C)S(=O)(=O)c1ccc(OC(F)(F)F)cc1Cl.O=C(O)C(F)(F)F | 68 |
| CN(Cc1ccc(C2=NCCN2)cc1)C(=O)CCN(C1CC1)S(=O)(=O)c1cccc(Cl)c1Cl.O=C(O)C(F)(F)F | 80 |
| CN(Cc1ccc(C2=NCCN2)cc1)C(=O)CCN(C1CC1)S(=O)(=O)c1c(Cl)cccc1Cl.O=C(O)C(F)(F)F | 65 |
| CN(Cc1ccc(C2=NCCN2)cc1)C(=O)COCCN(C1CC1)S(=O)(=O)c1ccccc1Cl.O=C(O)C(F)(F)F | 52 |
| Cc1c(Cl)ccc(S(=O)(=O)N(CCCCC(=O)N(C)Cc2ccc(C3=NCCN3)cc2)CC(N)=O)c1Cl.O=C(O)C(F)(F)F [Example 19, 5-[(2-amino-2-oxoethyl)[(2,4-dichloro-3-methylphenyl)sulphonyl]-amino]-N-[[4-(4,5-dihydro-1H-imidazol-2-yl)phenyl]methyl]-N-methyl-pentanamide, trifluoroacetate] | 90 |
| CC(C)N(CCC(=O)N(C)Cc1ccc(C2=NCCN2)cc1)S(=O)(=O)c1cccc(Cl)c1Cl.O=C(O)C(F)(F)F | 92 |
| CN(Cc1ccc(C2=NCCN2)cc1)C(=O)/C=C/CN(C)S(=O)(=O)c1ccccc1C(F)(F)F.O=C(O)C(F)(F)F | 50 |
| CN(Cc1ccc(C2=NCCN2)cc1)C(=O)CCCCN(C1CC1)S(=O)(=O)c1ccccc1Cl.O=C(O)C(F)(F)F | 55 |
| CN(Cc1ccc(C2=NCCN2)cc1)C(=O)COCCN(C1CC1)S(=O)(=O)c1c(Cl)cccc1Cl.O=C(O)C(F)(F)F | 60 |
| Cc1c(Cl)ccc(S(=O)(=O)NC/C=C/C(=O)N(C)Cc2ccc(C3=NCCN3)cc2)c1Cl.O=C(O)C(F)(F)F | 99 |
| CN(Cc1ccc(C2=NCCN2)cc1)C(=O)CCN(CC(F)(F)F)S(=O)(=O)c1c(Cl)cccc1Cl.O=C(O)C(F)(F)F | 80 |
| Cc1c(Cl)ccc(S(=O)(=O)N(CCCCC(=O)N(C)Cc2ccc(C3=NCCN3)cc2)CCC(N)=O)c1Cl.O=C(O)C(F)(F)F | 85 |
| CN(Cc1ccc(C2=NCCN2)cc1)C(=O)CCN(CC(F)(F)F)S(=O)(=O)c1cccc(Cl)c1Cl.O=C(O)C(F)(F)F | 88 |
| CN(Cc1ccc(C2=NCCN2)cc1)C(=O)COCCN(C)S(=O)(=O)c1cccc(C(F)(F)F)c1.O=C(O)C(F)(F)F | 60 |
| CN(Cc1ccc(C2=NCCN2)cc1)C(=O)COCCN(C)S(=O)(=O)c1ccc(Cl)c(Cl)c1Cl.O=C(O)C(F)(F)F | 70 |
| CC(C)N(CCC(=O)N(C)Cc1ccc(C2=NCCN2)cc1)S(=O)(=O)c1c(Cl)cccc1Cl.O=C(O)C(F)(F)F | 75 |
| CN(Cc1ccc(C2=NCCN2)cc1)C(=O)COCCN(C)S(=O)(=O)c1c(Cl)cc(C(F)(F)F)cc1Cl.O=C(O)C(F)(F)F | 60 |
